Results as given in PMC4740413, “Multi-Drug Resistance Transporters and a Mechanism-Based Strategy for Assessing Risks of Pesticide Combinations to Honey Bees” (PLoS ONE, 2016).
Like-named read-outs stand apart in the source and are kept apart here.

Tests used:
[1] = test system: honey bees; assay: Acetamiprid assay: honey bee mortality after acetamiprid with or without inhibitors; conditions: for Mean mortality, acetamiprid with inhibitor: 1 mM inhibitor + 0.1 μg/μl acetamiprid; for Mean mortality, inhibitor only: 1 mM inhibitor without insecticide, 3 replicate cages
[2] = test system: honey bees; conditions: for Mortality (SE) 1 μg/ml IVM and 1mM Inhibitor: 1 mM inhibitor fed 24 h, then 1 mM inhibitor + 1 μg/ml ivermectin, proportion of bees dead at 24 h; for Mortality (SE), inhibitor-only control: 1 mM inhibitor without ivermectin, proportion of bees dead
Protocol: Apis mellifera were obtained from hives maintained on the University of Maryland farm in Beltsville, MD. Hives were maintained by standard bee keeping practices, and kept free of in-hive medications. Brood frames were taken from hives and emerging bees were collected daily into 207 ml cages of 15–20 bees and fed 30% sucrose w/v solution. Bees used in bioassays were 3–7 days post-eclosion.
Mortality was recorded 24 h after ivermectin exposure for 20–28 replicate cages of bees with approximately 15 bees in each cage. No-inhibitor controls (15 cages) were included in each assay. […] Mortality rates for each concentration of ivermectin were estimated by averaging the mortality of approximately 15 bees contained in each of 4 replicate cages. Similarly, to measure changes in sensitivity to ivermectin at varying dosages of the inhibitors, 4–12 replicate cages of bees (fewer at extreme dosages, more at intermediates) were fed a series of concentrations of each inhibitor (0, 0.03, 0.06, 0.125, 0.25, 0.5, 1.0, 2.0 mM) for 24 h, then fed a combination of the same inhibitor dose and 1μg/ml ivermectin solution.
Mortality was estimated as the proportion of bees within a cage that were dead at 24 or 48 h after treatment with ivermectin. Comparisons of mean mortality among treatments were tested using t-tests. LC50s of ivermectin with inhibitors were estimated using the ProcProbit procedure in SAS (V. 9.2).

Row | Compound | Mean mortality, acetamiprid with inhibitor ([1]; 24 h) | Mean mortality, inhibitor only [1] | Low inhibitor dosage that increases sensitivity of bees to ivermectin ([2]; 1 μg/ml ivermectin, 24 h (Fig 2)) | Mortality (SE) 1 μg/ml IVM and 1mM Inhibitor [2] | Mortality (SE), inhibitor-only control [2] | Mortality (SE), inhibitor-only control ([2]; listed as fumagillin) | Synergism Ratio (LC50 relative to IVM) ([2]; 1 mM inhibitor) | LC50 of ivermectin ([2]; ivermectin alone in syrup, 24 h) | Mortality (SE), inhibitor-only control ([2]; listed as quercetin) | Mean mortality, acetamiprid alone ([1]; 0.1 μg/μl acetamiprid, 24 h)
1 | CO[C@@H]1[C@H](OC(=O)/C=C/C=C/C=C/C=C/C(=O)O)CC[C@]2(CO2)[C@H]1[C@@]1(C)O[C@@H]1CC=C(C)C [Fumagillin, fumagillin] | 0.80 | 0.01 | 0.03 mM | 0.47 | 0.01 (0.01) | 0.01 | – | – | – | –
2 | CC[C@H](C)[C@H]1O[C@]2(CC[C@@H]1C)C[C@@H]1C[C@@H](C/C=C(\C)[C@@H](O[C@H]3C[C@H](OC)[C@@H](O[C@H]4C[C@H](OC)[C@@H](O)[C@H](C)O4)[C@H](C)O3)[C@@H](C)/C=C/C=C3\CO[C@@H]4[C@H](O)C(C)=C[C@@H](C(=O)O1)[C@]34O)O2 [Ivermectin (IVM), Ivermectin] | – | – | – | – | – | – | 1.00 | 1.57 µg/mL | – | –
3 | O=c1c(O)c(-c2ccc(O)c(O)c2)oc2cc(O)cc(O)c12 [Quercetin, quercetin] | 0.97 | 0.07 | – | 0.54 | 0.02 (0.02) | – | – | – | 0.02 | –
4 | C/C(=N\C#N)N(C)Cc1ccc(Cl)nc1 [acetamiprid] | – | – | – | – | – | – | – | – | – | 0.25
